{
  "source": "patent US20170105999A1",
  "about": "“METHOD FOR TREATING DRUG RESISTANT CANCER” (NATIONAL YANG MING UNIVERSITY, priority 2014, published 2017)",
  "key": {"J5": {"test_system": "J5", "assay": "Tumor spheroid (sphere formation) assay", "assay_type": "cell-based", "settings": "J5, hepatocellular carcinoma"}, "A549": {"test_system": "A549", "assay": "Aldefluor assay (ALDH-positive cell population)", "assay_type": "cell-based", "settings": "A549, adenocarcinoma", "method": "(§1) Briefly, single cells obtained from cell cultures were incubated in an Aldefluor assay buffer containing an ALDH substrate (bodipy-aminoacetaldehyde, BAAA) for 50 minutes at 37° C."}, "CL97": {"test_system": "CL97", "assay": "Aldefluor assay (ALDH-positive cell population)", "assay_type": "cell-based", "settings": "CL97, adenocarcinoma", "method": "as §1"}, "CL141": {"test_system": "CL141", "assay": "Aldefluor assay (ALDH-positive cell population)", "assay_type": "cell-based", "settings": "CL141, adenocarcinoma", "method": "as §1"}, "CL152": {"test_system": "CL152", "assay": "CL152 (squamous) tumor-bearing NOD/SCID mice, standard regimen combination", "assay_type": "in vivo"}, "GBM8401": {"test_system": "GBM8401", "assay": "Side population analysis by flow cytometry (Hoechst 33342)", "assay_type": "cell-based", "settings": "GBM8401, brain cancer", "method": "(§2) Single-cell suspensions of cells were detached from dishes with Trypsin-EDTA (Invitrogen) and suspended at 1×10^6 cells/mL in Hank's balanced salt solution ([…]) supplemented with 3% fetal calf serum and 10 mM Hepes. These cells were then incubated at 37° C. for 90 minutes with 20 μg/mL Hoechst 33342 (Sigma Chemical, St. Louis, Mo.). The ABC transporter inhibitor verapamil (Sigma) was added at a final concentration of 50 μM to confirm the gating area on flow cytometry. After 90 minutes incubation with indicated drugs, the cells were centrifuged immediately for 5 minutes at 300 g and 4° C. and resuspended in ice-cold HBSS, The cells were kept on ice to inhibit efflux of the Hoechst dye, and 1 μg/mL propidium iodide (PI, BD) were added to discriminate dead cells. Finally, these cells were filtered through a 40 μm cell strainer (BD) to obtain single-suspension cells. Cell dual-wavelength analysis and purification were performed on a dual-laser FACS Vantage SE (BD). Hoechst 33342 can be excited at 355 nm UV light and emitted blue fluorescence with a 450/20 band-pass (BP) filter and red fluorescence with a 675 nm edge filter long-pass (EFLP). A 610 nm dichroic mirror short-pass (DMSP) was used to separate the emission wavelengths. PI-positive (dead) cells were excluded from the analysis."}, "U87MG": {"test_system": "U87MG", "assay": "Side population analysis by flow cytometry (Hoechst 33342)", "assay_type": "cell-based", "settings": "brain cancer", "method": "as §2"}, "NSCLC cell lines": {"test_system": "NSCLC cell lines", "assay": "Clonogenic assay in NSCLC cell lines", "assay_type": "cell-based", "settings": "different concentration of prochlorperazine", "method": "Tested cells were seeded respectively in 6 well plates with 10^4 cells per well for 14 days. […] After removing the crystal violet carefully and rinse with tap water, the colonies were counted manually.\nA549, A549-ON, CL97, CL141, HCC827, and H441 were lung adenocarcinoma cell lines. CL152, H2170, and H226 were squamous cell carcinoma cell lines. Cell viability was determined by SRB assay. […] To determine whether side population (SP) cells, which represent a cell population with CSC characteristics, exist in NSCLC cell lines, we stained the cells with the fluorescent dye, Hoechst 33342, and analyzed the cells with flow cytometry."}},
  "data": [
    {"smiles": "CN1CCN(CCCN2c3ccccc3Sc3ccc(Cl)cc32)CC1", "note": "[prochlorperazine]", "values": [
      {"measurement": "Sphere formation", "setting": "J5", "result": ">5", "unit": "µM"},
      {"measurement": "ALDH^+ assay", "setting": "A549", "result": "<5", "unit": "µM"},
      {"measurement": "ALDH^+ assay", "setting": "CL97", "result": "<5", "unit": "µM"},
      {"measurement": "ALDH^+ assay", "setting": "CL141", "result": "<5", "unit": "µM"},
      {"measurement": "tumor growth, prochlorperazine alone", "setting": "CL152; 5 mg/kg", "result": "could inhibit tumor growth"},
      {"measurement": "tumor growth, standard treatment combined with prochlorperazine", "setting": "CL152; 60 mg/kg gemcitabine + 3 mg/kg cisplatin + 5 mg/kg prochlorperazine", "result": "more significantly inhibitory effect of tumor growth than other treatments"},
      {"measurement": "Side population", "setting": "GBM8401", "result": ">10", "unit": "µM"},
      {"measurement": "Side population", "setting": "U87MG", "result": ">10", "unit": "µM"},
      {"measurement": "Clonogenicity of NSCLC cell lines", "setting": "NSCLC cell lines", "result": "reduced in a concentration-dependent manner"}
    ]}
  ]
}
